Publication PMC11823594, “Durlobactam in combination with β-lactams to combat Mycobacterium abscessus” (Antimicrobial Agents and Chemotherapy, 2024)
In brackets after ≈: the same amount, converted by molar mass. Read-outs that look alike come from different tables or passages of the source.

Legend:
[1] = tested on: Mycobacterium abscessus ATCC 19977 strain; assay: Morphological changes by flow cytometry and confocal microscopy; format: cell-based; conditions: clinically relevant unbound concentrations (fCss,ave), 24 h
Experimental: Flow cytometry was employed to evaluate morphological changes in individual bacterial cells following PBP-lipo inactivation after 24 h of β-lactam treatment. The bacterial cells were stained using the BacLight kit L7012 (Thermo Fisher Scientific, Waltham, MA), containing SYTO 9 and propidium iodide (PI). Analysis was performed using a CytoFLEX flow cytometer (Beckman Coulter, CA), with data processed using CytExpert software.
Bacterial morphological changes resulting from PBP-lipo inactivation were investigated using an ImageXpress Micro Confocal Microscope (Molecular Devices, CA). The staining procedures applied to the samples mirrored those used for flow cytometry. Stained bacterial cells were placed in optically clear flat-bottom 96-well plates, and observations were conducted at 60× magnification. Cell length measurements were obtained through automated image analysis using MetaXpress 6 software.

[2] = biological target: T1, PBP-lipo (Mycobacteroides abscessus, UniProt B1MDC3); assay: Bocillin-FL binding assay; conditions: 2 h incubation, 1:10 molar ratio
T1 construct: made in house; host or cells: Escherichia coli BL21 (DE3)
T1 sequence (B1MDC3 entry or part of it): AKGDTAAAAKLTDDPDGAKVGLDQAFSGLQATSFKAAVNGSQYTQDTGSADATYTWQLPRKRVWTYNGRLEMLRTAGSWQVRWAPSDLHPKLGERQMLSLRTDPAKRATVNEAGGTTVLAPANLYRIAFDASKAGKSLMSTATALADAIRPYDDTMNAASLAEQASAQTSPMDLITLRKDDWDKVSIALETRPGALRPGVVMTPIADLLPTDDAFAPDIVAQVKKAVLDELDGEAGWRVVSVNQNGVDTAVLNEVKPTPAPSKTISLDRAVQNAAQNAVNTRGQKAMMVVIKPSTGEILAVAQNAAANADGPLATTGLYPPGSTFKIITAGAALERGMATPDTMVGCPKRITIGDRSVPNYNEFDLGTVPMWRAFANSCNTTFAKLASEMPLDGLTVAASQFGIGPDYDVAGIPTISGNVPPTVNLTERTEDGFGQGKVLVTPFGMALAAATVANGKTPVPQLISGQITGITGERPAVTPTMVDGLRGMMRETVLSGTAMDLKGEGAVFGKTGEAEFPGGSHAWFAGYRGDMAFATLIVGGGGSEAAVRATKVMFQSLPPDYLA
Experimental: To analyze the binding of PBP-lipo with β-lactams or BLIs, purified PBP-lipo (4 µg) was incubated with β-lactams or BLIs at a 1:10 molar ratio in a buffer containing 10 mM sodium phosphate (pH 7.4) and 150 mM NaCl. The incubation was carried out for 2 h at room temperature. After the initial incubation, 1 µM Bocillin FL was added to the reaction mixture. The incubation was continued for an additional 3–4 h at 37°C. After incubation, the samples were boiled to denature the proteins. The samples were then subjected to SDS-PAGE. The PBP-lipo:Bocillin complexes were visualized by fluorescence analysis at a wavelength of 488 nm using an Azure 300 gel imaging system. The intensity of the PBP-lipo:Bocillin complex bands was analyzed using GelAnalyzer software. The intensity of the band for PBP-lipo alone (without β-lactams) was set to 1 as the highest intensity. The intensity of each band for PBP-lipo incubated with β-lactams was then normalized by dividing by the intensity of the band for PBP-lipo alone.

[3] = tested on: Mab ATCC 19977 strain; assay: MIC testing (CLSI, Middlebrook 7H9 broth); format: cell-based, Mycobacterium abscessus; conditions: for MIC: Mycobacteroides abscessus, ATCC19977, Mab ATCC 19977, no BLI added, 30°C, 48 h, read-out: MIC, alone; for MIC, + DUR + SUL (1:1): durlobactam, sulbactam and test β-lactam all at the same concentration; for MIC, + AVI (4 mg/L): fixed avibactam 4 mg/L; for MIC, + DUR + SUL (1 mg/L): fixed durlobactam 1 mg/L + sulbactam 1 mg/L
[4] = Predicted average unbound steady-state plasma concentration (fCss,avg) at clinically relevant doses; set-up: species or system human; conditions: median unbound average steady-state plasma concentration, continuous infusion; daily dose DUR 4,000, AVI 1,500, IPM 4,000, CFT 1,800, AMX 1,500, SULO 1,000, CXM 1,500, SUL 4,000, TBP 1,800 mg
[5] = biological target: DDC (Mycobacteroides abscessus, UniProt B1MDJ1); assay: Steady-state kinetics with nitrocefin (Ki,app); format: biochemical; conditions: in parentheses in Table 3;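 also: Parenthesised value is the fCss,avg to Ki,app ratio where above 1 means target likely hit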
DDC, sequence (B1MDJ1 entry or part of it): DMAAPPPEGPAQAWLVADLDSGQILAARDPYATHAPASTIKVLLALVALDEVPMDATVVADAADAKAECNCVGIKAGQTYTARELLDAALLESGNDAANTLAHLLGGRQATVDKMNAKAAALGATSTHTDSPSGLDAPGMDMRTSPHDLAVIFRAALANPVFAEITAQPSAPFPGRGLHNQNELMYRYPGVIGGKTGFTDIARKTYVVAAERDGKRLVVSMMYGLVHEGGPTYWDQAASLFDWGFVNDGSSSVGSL
Experimental: (§1) Steady-state kinetic studies were conducted using purified LDTs and PBPs (LDT1-5, PBP B, PBP-lipo, and DDC) as previously described ([20]). The assays were performed using a BioTek Synergy2 multimode reader in conjunction with Gen5 analysis software. […] To determine reaction velocities, a 0.25 cm path length was employed. The steady-state kinetic parameters (Vmax, kcat, and Km) were obtained by fitting the data to the Henri-Michaelis-Menten equation using a nonlinear least-squares fit in Origin 8.1 software (OriginLab, Northampton, MA). The reaction rate (v) at a given substrate concentration ([S]) was calculated according to the following equations: […]
(§2) Changes in absorbance at 482 nm were measured over a period of 0–30 min for each concentration of β-lactams and BLIs. Data were linearized using a Dixon plot, plotting the inverse changes in absorbance (1/ΔA) against the concentrations of β-lactams and BLIs. The observed Ki,app was determined directly from the Dixon plot, and these values were corrected for substrate concentration and affinity for the LDT using the following equation:
(§3) Ki,app=observed Ki,app/1+[NCF]/Km NCF

[6] = biological target: PBP B (Mycobacterium abscessus, UniProt B1MP31); assay: Steady-state kinetics with nitrocefin (Ki,app); format: biochemical; conditions: for Ratio of fCss,avg to Ki,app, PBP B: in parentheses in Table 3;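 as to Ratio of fCss,avg to Ki,app, PBP B: Parenthesised value is the fCss,avg to Ki,app ratio where above 1 means target likely hit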
PBP B, sequence (B1MP31 entry or part of it): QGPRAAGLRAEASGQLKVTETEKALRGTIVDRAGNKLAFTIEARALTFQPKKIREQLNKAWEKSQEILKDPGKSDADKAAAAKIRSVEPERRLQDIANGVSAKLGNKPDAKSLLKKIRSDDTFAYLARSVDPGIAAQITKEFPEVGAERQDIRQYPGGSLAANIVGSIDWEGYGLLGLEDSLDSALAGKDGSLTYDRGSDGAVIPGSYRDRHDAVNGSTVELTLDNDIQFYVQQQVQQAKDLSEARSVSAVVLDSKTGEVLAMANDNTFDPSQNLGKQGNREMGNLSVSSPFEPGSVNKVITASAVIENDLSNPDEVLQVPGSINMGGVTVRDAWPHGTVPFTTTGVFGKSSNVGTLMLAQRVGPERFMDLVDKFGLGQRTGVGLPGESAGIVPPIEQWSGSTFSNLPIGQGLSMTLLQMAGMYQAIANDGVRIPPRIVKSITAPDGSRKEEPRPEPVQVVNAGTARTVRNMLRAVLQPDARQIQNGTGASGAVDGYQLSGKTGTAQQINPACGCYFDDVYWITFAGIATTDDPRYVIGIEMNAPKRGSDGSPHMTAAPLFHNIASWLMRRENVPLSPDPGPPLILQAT
Experimental: as §1, §2, §3

[7] = biological target: T1, PBP-lipo; assay: Steady-state kinetics with nitrocefin (Ki,app); format: biochemical; conditions: for Ratio of fCss,avg to Ki,app, PBP-lipo: in parentheses in Table 3; for Ki: nitrocefin at 5 × Km, read-out: Ki,app PBP-lipo (converted)
Experimental: Steady-state kinetic studies were conducted using purified LDTs and PBPs (LDT1-5, PBP B, PBP-lipo, and DDC) as previously described ([20]). The assays were performed using a BioTek Synergy2 multimode reader in conjunction with Gen5 analysis software. Increasing concentrations of NCF (Δε482 = 17,400 M^⁻¹ cm^⁻¹) were used, while fixed concentrations of the LDTs and PBPs were monitored for changes in absorbance at 482 nm over a time period of 0 to 10 min. To determine reaction velocities, a 0.25 cm path length was employed. The steady-state kinetic parameters (Vmax, kcat, and Km) were obtained by fitting the data to the Henri-Michaelis-Menten equation using a nonlinear least-squares fit in Origin 8.1 software (OriginLab, Northampton, MA). The reaction rate (v) at a given substrate concentration ([S]) was calculated according to the following equations: […]
as §2, with “To determine the apparent inhibition constants (Ki,app) for β-lactams and BLIs, the following experimental condition was employed: NCF as a substrate at a concentration of 5 × Km, LDT/ PBP enzymes with fixed concentration, and β-lactams and BLIs with various concentrations. Changes” for “Changes”
as §3

[8] = read-out: Ki,app PBP B (converted)
[9] = nitrocefin at 5 × Km, read-out: Ki,app PBP B (converted)

Row | Compound | Morphological change of Mab cells [1] | Binding to PBP-lipo (Bocillin-FL competition) [2] | MIC [3] [µg/mL] | MIC, + DUR + SUL (1:1) [3] [µg/mL] | MIC, + AVI (4 mg/L) [3] [µg/mL] | MIC, + DUR + SUL (1 mg/L) [3] [µg/mL] | fCss,avg [4] [mg/L] | Ratio of fCss,avg to Ki,app, DDC [5] | Ratio of fCss,avg to Ki,app, PBP B [6] | Ki [6, 8] [µM] | Ratio of fCss,avg to Ki,app, PBP-lipo [7] | Ki [7] [µM] | Ki [6] [µM] | Ki [6, 9] [µM]
1 | C[C@@H](O)[C@H]1C(=O)N2C(C(=O)O)=C(SCCN=CN)C[C@H]12 [Imipenem, imipenem] | filamentous shapes with an elongated cell length | demonstrated binding to PBP-lipo | 8 (≈ 26.7 µM) | 2 | 4 | 4 | 12 | 1.3 (9) | 0.4 (27) | 1.34 | 22 | 2 | – | –
2 | CC1(C)S[C@@H]2[C@H](NC(=O)[C@H](N)c3ccc(O)cc3)C(=O)N2[C@H]1C(=O)O [Amoxicillin, amoxicillin] | does not induce any morphological changes | demonstrated binding to PBP-lipo | 128 (≈ 350 µM) | 1 | 32 | 1 | 6 | – | – | – | – | 0.274 | 7.39 | –
3 | NC(=O)[C@@H]1CC[C@@H]2CN1C(=O)N2OS(=O)(=O)O [Avibactam, avibactam] | did not induce noticeable morphological changes | demonstrated binding to PBP-lipo | > 128 | – | – | – | 5 | 0.1 | 0.6 | – | 1 | 18.9 | – | 33.9
4 | C[C@@H](O)[C@H]1C(=O)N2C(C(=O)O)=C(SC3CN(C4=NCCS4)C3)[C@H](C)[C@H]12 [Tebipenem, tebipenem] | – | – | 8 (≈ 20.9 µM) | 1 | 2 | 1 | 1.7 | 0.01 | 243 | – | 0.05 | 88.7 | – | 0.0183
5 | CC1=C[C@@H]2CN(C(=O)N2OS(=O)(=O)O)[C@@H]1C(N)=O [Durlobactam, durlobactam] | filamentous shapes with an elongated cell length | demonstrated binding to PBP-lipo | – | – | – | – | 16 | 1.6 | 1 | – | 133 | 0.361 | – | 57.7
6 | C[C@@H](O)[C@H]1C(=O)N2C(C(=O)O)=C(S[C@H]3CC[S@@+]([O-])C3)S[C@H]12 [Sulopenem, sulopenem] | filamentous shapes with an elongated cell length | demonstrated binding to PBP-lipo | 1 (≈ 2.86 µM) | 0.25 | 0.5 | 1 | 2 | 0.1 | 0.7 | – | 25 | 0.229 | – | 8.3
7 | CO/N=C(\C(=O)N[C@@H]1C(=O)N2C(C(=O)O)=C(COC(N)=O)CS[C@H]12)c1ccco1 [Cefuroxime, cefuroxime] | did not induce noticeable morphological changes | demonstrated binding to PBP-lipo | 4 (≈ 9.43 µM) | 1 | 4 | 2 | 12 | 0.05 (240) | 3 (4) | 7.07 | 0.5 | 51.8 | – | –
